For assay [1], the target named is T1, HiBiT-BRM fusion protein in stable HeLa cell line (Homo sapiens, UniProt P51531).
T1 construct: expressed in transfected cells
Briefly: HiBiT-BRM cell-based degradation assay (Nano-Glo HiBiT Lytic Detection, 24 h). The arrangement: DC50: scale not given here. To be noted: HeLa HiBiT-BRM cells; for DC50: read-out: BRM HiBit Degradation IC50; for BRM HiBit Degradation Maximum (%): top dose 30 μM. The protocol: (§1) Procedure: A stable HeLa cell line expressing HiBiT-BRM was generated. On day 0, 5000 cells were seeded in 40 μL of media into each well of 384-well cell culture plates. On day 1, cells were treated with 120 nL DMSO or 120 nL of 3-fold serially DMSO-diluted compounds (10 points in duplicate with 30 μM as final top dose). Subsequently plates were incubated for 24 h in a standard tissue culture incubator and equilibrated at room temperature for 15 minutes. Nano-Glo HiBiT Lytic Detection System (Promega N3050) reagent was freshly prepared and 20 ul was added to each well. Upon addition of this LgBit-containing reagent, the HiBiT and LgBiT proteins associate to form the luminescent NanoBiT luciferase. The plates were shaken for 10 minutes at room temperature and the bioluminescence read using an EnVision plate reader (PerkinElmer).
The degradation % was calculated using the following formula: % degradation=100%−100%×(Lumsample−LumLC)/(LumHC−LumLC). DMSO treated cells are employed as High Control (HC) and 2 μM of a known BRM/BRG1 degrader standard treated cells are employed as Low Control (LC).
In general terms: The HiBiT peptide binds its large partner to form an active luciferase.

Assay [2] deals with T2, HiBit-BRG1 fusion protein in stable HeLa cell line expressing HiBit-BRG1 and LgBit (Homo sapiens, UniProt P51532).
T2 construct: expressed in transfected cells
T2 sequence (P51532 whole entry, the tested form may be a part): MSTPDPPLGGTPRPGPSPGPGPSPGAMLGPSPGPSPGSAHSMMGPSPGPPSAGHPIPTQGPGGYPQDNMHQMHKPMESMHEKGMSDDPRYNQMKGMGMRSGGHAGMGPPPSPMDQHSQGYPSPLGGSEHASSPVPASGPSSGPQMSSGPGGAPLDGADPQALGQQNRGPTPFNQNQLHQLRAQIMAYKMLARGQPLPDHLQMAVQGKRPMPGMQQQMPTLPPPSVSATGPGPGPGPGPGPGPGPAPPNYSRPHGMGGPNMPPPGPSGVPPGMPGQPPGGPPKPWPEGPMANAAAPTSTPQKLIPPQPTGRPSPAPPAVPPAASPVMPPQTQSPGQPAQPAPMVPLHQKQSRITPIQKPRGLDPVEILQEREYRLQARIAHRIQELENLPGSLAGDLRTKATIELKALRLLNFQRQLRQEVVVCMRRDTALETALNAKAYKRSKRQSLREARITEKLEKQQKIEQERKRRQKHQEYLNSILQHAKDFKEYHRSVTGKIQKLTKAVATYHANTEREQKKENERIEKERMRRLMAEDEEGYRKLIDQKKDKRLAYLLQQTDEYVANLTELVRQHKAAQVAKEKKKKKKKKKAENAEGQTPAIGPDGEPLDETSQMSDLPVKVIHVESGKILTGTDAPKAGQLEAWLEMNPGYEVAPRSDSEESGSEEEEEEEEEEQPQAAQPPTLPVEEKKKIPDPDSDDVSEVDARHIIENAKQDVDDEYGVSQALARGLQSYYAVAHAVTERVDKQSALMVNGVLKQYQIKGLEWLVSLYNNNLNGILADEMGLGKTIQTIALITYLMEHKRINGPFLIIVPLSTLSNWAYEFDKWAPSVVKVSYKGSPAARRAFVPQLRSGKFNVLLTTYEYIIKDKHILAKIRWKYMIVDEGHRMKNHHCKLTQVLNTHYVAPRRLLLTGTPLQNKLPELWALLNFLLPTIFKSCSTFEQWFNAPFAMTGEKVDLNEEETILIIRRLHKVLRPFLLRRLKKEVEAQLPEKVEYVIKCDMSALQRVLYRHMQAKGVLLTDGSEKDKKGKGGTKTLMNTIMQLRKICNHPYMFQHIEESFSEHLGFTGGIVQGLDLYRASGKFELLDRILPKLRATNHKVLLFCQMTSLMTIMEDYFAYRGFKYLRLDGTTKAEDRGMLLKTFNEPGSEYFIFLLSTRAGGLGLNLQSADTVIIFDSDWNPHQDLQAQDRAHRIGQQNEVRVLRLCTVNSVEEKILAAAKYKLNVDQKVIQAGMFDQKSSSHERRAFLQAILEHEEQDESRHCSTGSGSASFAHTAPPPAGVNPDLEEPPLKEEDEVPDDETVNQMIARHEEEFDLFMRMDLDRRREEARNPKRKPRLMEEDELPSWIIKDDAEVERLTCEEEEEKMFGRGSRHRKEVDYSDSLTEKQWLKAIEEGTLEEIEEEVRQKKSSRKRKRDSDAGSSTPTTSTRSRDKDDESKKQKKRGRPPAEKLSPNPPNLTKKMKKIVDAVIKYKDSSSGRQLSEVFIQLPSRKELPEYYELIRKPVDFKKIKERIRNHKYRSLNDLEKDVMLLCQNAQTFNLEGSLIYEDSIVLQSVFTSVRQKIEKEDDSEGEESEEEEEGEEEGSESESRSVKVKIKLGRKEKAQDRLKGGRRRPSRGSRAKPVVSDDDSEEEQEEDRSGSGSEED
The experiment in a line: HiBiT-BRG1 cell-based degradation assay (Nano-Glo HiBiT, 24 h). As to conditions: HeLa HiBit-BRG1/LgBit cells; for Dmax: top dose 30 μM, read-out: BRG1 HiBit Degradation Maximum (%); for DC50: read-out: BRMG1 HiBit Degradation IC50. The protocol:
as §1, with “On day 1, cells were treated with 120 nL DMSO or 120 nL of 3-fold serially DMSO-diluted compounds (10 points in duplicate with 30 μM as final top dose).” left out, “(PerkinElmer). For measurement of BRG1 degradation, a stable HeLa cell line expressing HiBit-BRG1 and LgBit was generated. The same protocol as above was then followed. The degradation % was calculated using the following formula: % degradation=100%−100%×(Lumsample−LumLC)/(LumHC−LumLC). DMSO treated cells are employed as High Control (HC) and 2 μM of a known BRM/BRG1 degrader standard treated cells are employed as Low Control (LC).” for “(PerkinElmer).”

The structures appear in SMILES notation.

T1 sequence (P51531 whole entry, the tested form may be a part): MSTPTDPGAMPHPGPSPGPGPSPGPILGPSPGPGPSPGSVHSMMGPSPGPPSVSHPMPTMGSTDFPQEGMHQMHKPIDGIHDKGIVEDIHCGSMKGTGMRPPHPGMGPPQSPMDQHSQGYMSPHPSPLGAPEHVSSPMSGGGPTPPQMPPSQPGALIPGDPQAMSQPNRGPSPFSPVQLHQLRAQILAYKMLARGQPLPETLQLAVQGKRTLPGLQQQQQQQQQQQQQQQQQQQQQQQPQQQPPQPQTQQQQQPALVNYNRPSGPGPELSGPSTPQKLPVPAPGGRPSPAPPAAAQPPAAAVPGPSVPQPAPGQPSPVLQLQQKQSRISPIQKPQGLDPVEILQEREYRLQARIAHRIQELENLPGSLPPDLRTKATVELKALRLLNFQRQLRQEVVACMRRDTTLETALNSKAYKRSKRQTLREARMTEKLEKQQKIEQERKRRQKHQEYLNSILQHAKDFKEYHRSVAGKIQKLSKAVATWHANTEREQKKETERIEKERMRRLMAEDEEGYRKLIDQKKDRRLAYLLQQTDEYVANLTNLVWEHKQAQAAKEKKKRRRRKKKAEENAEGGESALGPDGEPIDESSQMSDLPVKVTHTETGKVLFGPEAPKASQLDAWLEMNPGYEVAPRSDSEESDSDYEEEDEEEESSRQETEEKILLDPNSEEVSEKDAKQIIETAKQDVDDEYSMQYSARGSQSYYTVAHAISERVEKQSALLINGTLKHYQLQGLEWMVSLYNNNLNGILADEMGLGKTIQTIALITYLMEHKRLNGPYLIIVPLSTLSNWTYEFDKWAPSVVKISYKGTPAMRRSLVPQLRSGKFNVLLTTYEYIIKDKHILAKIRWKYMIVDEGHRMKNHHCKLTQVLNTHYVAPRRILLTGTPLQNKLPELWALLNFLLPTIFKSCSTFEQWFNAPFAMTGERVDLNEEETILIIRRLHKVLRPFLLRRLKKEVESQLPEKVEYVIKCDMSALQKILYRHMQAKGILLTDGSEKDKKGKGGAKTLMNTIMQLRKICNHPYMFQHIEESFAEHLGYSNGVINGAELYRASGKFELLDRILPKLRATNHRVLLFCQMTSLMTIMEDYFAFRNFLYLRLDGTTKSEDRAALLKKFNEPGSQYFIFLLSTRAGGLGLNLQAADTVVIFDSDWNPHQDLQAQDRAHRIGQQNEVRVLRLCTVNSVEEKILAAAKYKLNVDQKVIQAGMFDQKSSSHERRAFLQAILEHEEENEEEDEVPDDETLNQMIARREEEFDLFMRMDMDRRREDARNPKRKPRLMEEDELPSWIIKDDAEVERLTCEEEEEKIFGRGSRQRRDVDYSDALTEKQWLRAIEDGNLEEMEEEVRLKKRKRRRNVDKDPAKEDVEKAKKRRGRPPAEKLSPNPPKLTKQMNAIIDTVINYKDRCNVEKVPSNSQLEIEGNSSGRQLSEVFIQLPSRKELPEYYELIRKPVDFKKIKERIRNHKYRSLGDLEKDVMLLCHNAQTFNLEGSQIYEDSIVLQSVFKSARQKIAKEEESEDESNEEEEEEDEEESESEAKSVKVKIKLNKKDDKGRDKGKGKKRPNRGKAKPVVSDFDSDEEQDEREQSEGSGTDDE

For `Cc1ncsc1-c1ccc([C@H](C)NC(=O)[C@@H]2C[C@@H](O)CN2C(=O)[C@@H](c2cc(N3CCC(CN4CC(c5ccc6cc(-c7ccccc7O)nnc6c5)C4)CC3)no2)C(C)C)cc1` [Compound 9, (2S,4R)-4-hydroxy-1-((R)-2-(3-(4-((3-(3-(2-hydroxyphenyl)cinnolin-7-yl)azetidin-1-yl)methyl)piperidin-1-yl)isoxazol-5-yl)-3-methylbutanoyl)-N-((S)-1-(4-(4-methylthiazol-5-yl)phenyl)ethyl)pyrrolidine-2-carboxamide], in assay [1], the DC50 was greater than 0.01 µM and the “BRM HiBit Degradation Maximum (%)” value was “A (“A” indicates maximum degradation ≥75%)”. For the same molecule, the Dmax in assay [2] was less than 50%.
Turning to `CC(C)[C@@H](C(=O)N1C[C@H](O)C[C@H]1C(=O)N[C@@H](C)c1ccc(C#N)cc1)n1cc(N2CC3(CN(c4ccc5cc(-c6ccccc6O)nnc5c4)C3)C2)nn1` [Compound 202, (2S,4R)-N-((S)-1-(4-cyanophenyl)ethyl)-4-hydroxy-1-((S)-2-(4-(6-(3-(2-hydroxyphenyl)cinnolin-7-yl)-2,6-diazaspiro[3.3]heptan-2-yl)-1H-1,2,3-triazol-1-yl)-3-methylbutanoyl)pyrrolidine-2-carboxamide], in assay [1], the DC50 was less than 0.01 µM and the “BRM HiBit Degradation Maximum (%)” value is “A (“A” indicates maximum degradation ≥75%)”. In addition, in assay [2], the DC50 was greater than 0.01 µM and the Dmax is greater than 50%.
Take `Cc1ncsc1-c1ccc([C@H](C)NC(=O)[C@@H]2C[C@@H](O)CN2C(=O)[C@@H](c2cc(N3CCOC4(CCN(c5ccc6nnc(-c7ccccc7O)cc6c5)CC4)C3)no2)C(C)C)cc1` [Compound 147, (2S,4R)-4-hydroxy-1-((R)-2-(3-(9-(3-(2-hydroxyphenyl)cinnolin-6-yl)-1-oxa-4,9-diazaspiro[5.5]undecan-4-yl)isoxazol-5-yl)-3-methylbutanoyl)-N-((S)-1-(4-(4-methylthiazol-5-yl)phenyl)ethyl)pyrrolidine-2-carboxamide]: in assay [1], the DC50 was less than 0.01 µM and the “BRM HiBit Degradation Maximum (%)” value was “A (“A” indicates maximum degradation ≥75%)”. In assay [2], the DC50 was greater than 0.01 µM and the Dmax is greater than 75%.
With `Cc1ncsc1-c1ccc([C@H](C)NC(=O)[C@@H]2C[C@@H](O)CN2C(=O)[C@@H](c2cc(OCCN3CC(c4ccc5nnc(-c6ccccc6O)cc5c4)C3)no2)C(C)C)cc1` [Compound 1, (2S,4R)-4-hydroxy-1-[(2R)-2-[3-(2-{3-[3-(2-hydroxyphenyl)cinnolin-6-yl]azetidin-1-yl}ethoxy)-1,2-oxazol-5-yl]-3-methylbutanoyl]-N-[(1S)-1-[4-(4-methyl-1,3-thiazol-5-yl)phenyl]ethyl]pyrrolidine-2-carboxamide], in assay [1], the DC50 was greater than 0.01 µM and the “BRM HiBit Degradation Maximum (%)” value is “B (“B” indicates maximum degradation ≥50%)”. In assay [2], the Dmax is less than 50%.
The like results for `Cc1ncsc1-c1ccc([C@H](C)NC(=O)[C@@H]2C[C@@H](O)CN2C(=O)[C@@H](c2cc(N3CC4(CN(c5ccc6cc(-c7ccccc7O)nnc6c5)C4)C3)sn2)C(C)C)cc1` [Compound 195, (2S,4R)-4-hydroxy-1-[(2R)-2-(5-{6-[3-(2-hydroxyphenyl)cinnolin-7-yl]-2,6-diazaspiro[3.3]heptan-2-yl}-1,2-thiazol-3-yl)-3-methylbutanoyl]-N-[(1S)-1-[4-(4-methyl-1,3-thiazol-5-yl)phenyl]ethyl]pyrrolidine-2-carboxamide] were, in that order, less than 0.01 µM, “A (“A” indicates maximum degradation ≥75%)” and greater than 50%.
On to `Cc1ncsc1-c1ccc([C@H](C)NC(=O)[C@@H]2C[C@@H](O)CN2C(=O)[C@H](c2cc(-c3cnc(N4CC[C@H](c5ccc6cc(-c7ccccc7O)nnc6c5)C4)nc3)no2)C(C)C)cc1` [Compound 21], for which the “BRM HiBit Degradation Maximum (%)” value in assay [1] was “C (“C” indicates maximum degradation <50%)”. In assay [2], the Dmax is less than 50%.
